Columns and labels:
Test in all cases: relative viability (nuclei count vs DMSO), 5 days (fraction); higher = more cells survive
CAL-12T = tested on: CAL-12T
How it was run: (§1)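 Lung cancer cell lines were seeded in 1536-well plates and dosed by pin tool the next day, with either a single drug or a fixed anchor-drug dose combined with five library-drug doses (not always all listed) spaced in √10 steps. Five days later, one step fixed the cells and stained their nuclei (final 0.05% Triton X-100, 1% formaldehyde, 1 ug/ml Hoechst), and nuclei were counted on 4× images. Relative viability is the nuclei count in treated wells divided by the count in vehicle wells, and each value is the median of duplicate plates.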

LCLC-97TM1 = tested on: LCLC-97TM1
How it was run: as §1

BEN = tested on: BEN
How it was run: as §1

NCI-H2087 = tested on: NCI-H2087
How it was run: as §1

PC-3 [JPC-3] = tested on: PC-3 [JPC-3]
How it was run: as §1

HCC-15 = tested on: HCC-15
How it was run: as §1

NCI-H727 = tested on: NCI-H727
How it was run: as §1

NCI-H650 = tested on: NCI-H650
How it was run: as §1

NCI-H1915 = tested on: NCI-H1915
How it was run: as §1

LC-2-ad = tested on: LC-2-ad
How it was run: as §1

NCI-H1944 = tested on: NCI-H1944
How it was run: as §1

H3255 = tested on: H3255
How it was run: as §1

NCI-H460 = tested on: NCI-H460
How it was run: as §1

NCI-H596 = tested on: NCI-H596
How it was run: as §1

NCI-H1651 = tested on: NCI-H1651
How it was run: as §1

A-427 = tested on: A-427
How it was run: as §1

NCI-H441 = tested on: NCI-H441
How it was run: as §1

NCI-H1792 = tested on: NCI-H1792
How it was run: as §1

ABC-1 = tested on: ABC-1
How it was run: as §1

201T = tested on: 201T
How it was run: as §1

Clc1ccc(Nc2nnc(Cc3ccncc3)c3ccccc23)cc1 [Vatalanib] + NC(=O)Nc1cc(-c2cccc(F)c2)sc1C(=O)N[C@H]1CCCNC1 [AZD7762] (partner 0.2 µM)
relative viability (CAL-12T; first compound 0.04 µM): 0.683
relative viability (CAL-12T; first compound 0.1265 µM): 0.599
relative viability (CAL-12T; first compound 0.4 µM): 0.588
relative viability (CAL-12T; first compound 1.265 µM): 0.469
relative viability (CAL-12T; first compound 4 µM): 0.574
relative viability (LCLC-97TM1; first compound 0.04 µM): 0.24
relative viability (LCLC-97TM1; first compound 0.1265 µM): 0.263
relative viability (LCLC-97TM1; first compound 0.4 µM): 0.222
relative viability (LCLC-97TM1; first compound 1.265 µM): 0.172
relative viability (LCLC-97TM1; first compound 4 µM): 0.23
relative viability (BEN; first compound 0.04 µM): 0.676
relative viability (BEN; first compound 0.1265 µM): 0.732
relative viability (BEN; first compound 0.4 µM): 0.596
relative viability (BEN; first compound 1.265 µM): 0.602
relative viability (BEN; first compound 4 µM): 0.685
relative viability (NCI-H2087; first compound 0.04 µM): 1.28
relative viability (NCI-H2087; first compound 0.1265 µM): 1.25
relative viability (NCI-H2087; first compound 0.4 µM): 1.4
relative viability (NCI-H2087; first compound 1.265 µM): 1.19
relative viability (NCI-H2087; first compound 4 µM): 1.15
relative viability (PC-3 [JPC-3]; first compound 0.04 µM): 0.81
relative viability (PC-3 [JPC-3]; first compound 0.1265 µM): 0.751
relative viability (PC-3 [JPC-3]; first compound 0.4 µM): 0.674
relative viability (PC-3 [JPC-3]; first compound 1.265 µM): 0.705
relative viability (PC-3 [JPC-3]; first compound 4 µM): 0.728
relative viability (HCC-15; first compound 0.04 µM): 1.18
relative viability (HCC-15; first compound 0.1265 µM): 1.23
relative viability (HCC-15; first compound 0.4 µM): 1.13
relative viability (HCC-15; first compound 1.265 µM): 1.32
relative viability (HCC-15; first compound 4 µM): 1.54
relative viability (NCI-H727; first compound 0.1265 µM): 0.49
relative viability (NCI-H727; first compound 0.4 µM): 0.774
relative viability (NCI-H727; first compound 1.265 µM): 0.654
relative viability (NCI-H727; first compound 4 µM): 0.538
relative viability (NCI-H650; first compound 0.04 µM): 1.03
relative viability (NCI-H650; first compound 0.1265 µM): 0.916
relative viability (NCI-H650; first compound 0.4 µM): 0.937
relative viability (NCI-H650; first compound 1.265 µM): 0.883
relative viability (NCI-H650; first compound 4 µM): 0.907
relative viability (NCI-H1915; first compound 0.04 µM): 0.717
relative viability (NCI-H1915; first compound 0.1265 µM): 0.665
relative viability (NCI-H1915; first compound 0.4 µM): 0.716
relative viability (NCI-H1915; first compound 1.265 µM): 0.653
relative viability (NCI-H1915; first compound 4 µM): 0.661
relative viability (LC-2-ad; first compound 0.04 µM): 0.897
relative viability (LC-2-ad; first compound 0.1265 µM): 0.762
relative viability (LC-2-ad; first compound 0.4 µM): 0.92
relative viability (LC-2-ad; first compound 1.265 µM): 0.785
relative viability (LC-2-ad; first compound 4 µM): 0.817
relative viability (NCI-H1944; first compound 0.04 µM): 0.467
relative viability (NCI-H1944; first compound 0.1265 µM): 0.463
relative viability (NCI-H1944; first compound 0.4 µM): 0.623
relative viability (NCI-H1944; first compound 1.265 µM): 0.46
relative viability (NCI-H1944; first compound 4 µM): 0.468
relative viability (H3255; first compound 0.04 µM): 0.829
relative viability (H3255; first compound 0.1265 µM): 0.892
relative viability (H3255; first compound 0.4 µM): 0.832
relative viability (H3255; first compound 1.265 µM): 0.732
relative viability (H3255; first compound 4 µM): 0.773
relative viability (NCI-H460; first compound 0.04 µM): 0.589
relative viability (NCI-H460; first compound 0.1265 µM): 0.646
relative viability (NCI-H460; first compound 1.265 µM): 0.477
relative viability (NCI-H460; first compound 4 µM): 0.596
relative viability (NCI-H596; first compound 0.04 µM): 1.11
relative viability (NCI-H596; first compound 0.1265 µM): 1.25
relative viability (NCI-H596; first compound 0.4 µM): 1.18
relative viability (NCI-H596; first compound 1.265 µM): 1.1
relative viability (NCI-H596; first compound 4 µM): 0.907
relative viability (NCI-H1651; first compound 0.04 µM): 0.441
relative viability (NCI-H1651; first compound 0.1265 µM): 0.471
relative viability (NCI-H1651; first compound 0.4 µM): 0.46
relative viability (NCI-H1651; first compound 1.265 µM): 0.359
relative viability (NCI-H1651; first compound 4 µM): 0.4
relative viability (A-427; first compound 0.04 µM): 0.797
relative viability (A-427; first compound 0.1265 µM): 0.736
relative viability (A-427; first compound 0.4 µM): 0.761
relative viability (A-427; first compound 4 µM): 0.64
relative viability (NCI-H441; first compound 0.04 µM): 1.05
relative viability (NCI-H441; first compound 0.1265 µM): 1.18
relative viability (NCI-H441; first compound 0.4 µM): 1.19
relative viability (NCI-H441; first compound 1.265 µM): 1.02
relative viability (NCI-H441; first compound 4 µM): 0.892
relative viability (NCI-H1792; first compound 0.04 µM): 0.723
relative viability (NCI-H1792; first compound 0.1265 µM): 0.663
relative viability (NCI-H1792; first compound 0.4 µM): 0.728
relative viability (NCI-H1792; first compound 1.265 µM): 0.503
relative viability (NCI-H1792; first compound 4 µM): 0.581
relative viability (ABC-1; first compound 0.04 µM): 0.7
relative viability (ABC-1; first compound 0.4 µM): 0.744
relative viability (ABC-1; first compound 1.265 µM): 0.853
relative viability (ABC-1; first compound 4 µM): 0.719
relative viability (201T; first compound 0.04 µM): 0.611
relative viability (201T; first compound 0.1265 µM): 0.57
relative viability (201T; first compound 0.4 µM): 0.621
relative viability (201T; first compound 1.265 µM): 0.648
relative viability (201T; first compound 4 µM): 0.57

From the supplement of paper PMC10307832
